Reference: patent US8802656B2, “Purified phospholipid-non-steroidal anti-inflammatory drug associated compositions and methods for preparing and using same” (priority 2004, dated 2014)
“Also recorded” adds a separate entry of the source.

System: rats injected with CFA in a hind paw
Assay: Pain pressure threshold (modified Randall-Selitto) in rats with CFA-inflamed hind paw, acute oral dosing
Assay type: in vivo, rat
Conditions: for pain pressure threshold: ibuprofen 20 or 50 mg/kg, indomethacin 1 mg/kg intragastric, two hours after dosing, CFA 4 days before, FIG. 4
Procedure: In the second in vivo experiment, we compared the analgesic activity of the acetone preparation of PC-ibuprofen to that of ibuprofen alone (at doses of 20 and 50 mg/kg) in rats and compared the response to a sub-threshod dose of indomethacin (1 mg/kg). The measurements were made on rats, in which 0.1 mL of Complete Freund's Adjuvant (CFA) was subcutaneously injected into the dorsal surface of the left hindpaw, 4 days previously to increase the affected paw's sensitivity to pressure. […] Myeloperoxidase Activity In this experiment, we evaluated the analgesic activity of the test material using a rodent model system previously described in detail. This was accomplished by initially inducing inflammation of a hind paw of male Sprague Dawley rats by subcutaneously injecting 0.1 mL of Complete Freund's Adjuvant (Sigma Chemical Co. St. Louis, Mo.) into the doral surface of the left hind paw. […] For comparison, we also intragastrically administered a group of rats with a sub-threshold dose (1 mg/kg) of the NSAID, indomethacin, that was suspended in 1% methyl cellulose.

Compound: CC(=O)Oc1ccccc1C(=O)O [ASA, Aspirin]
- pain threshold (CFA induced inflammation, Randall Siletto procedure, ASA formulations, FIG. 13): performed similarly

Compound: CC(C)Cc1ccc(C(C)C(=O)O)cc1 (stereo not shown) [ibuprofen]
- pain pressure threshold (listed as generic ibuprofen): dose-dependent increase in pain pressure threshold
- pain pressure threshold (listed as unmodified ibuprofen): apparent dose-dependent increase in pain pressure threshold

Compound: COc1ccc2c(c1)c(CC(=O)O)c(C)n2C(=O)c1ccc(Cl)cc1 [indomethacin]
- pain pressure threshold: no effect; also recorded: non-significant response
